Reference: patent US9066516B2, “Uses of thaxtomin and thaxtomin compositions as herbicides” (priority 2008, dated 2015)

Experiments:
Assay type in all cases: in vivo
pigweed (Amaranthus sp.) = test: Pot study, % control of pigweed (Example 2); conditions: 1.0 mg/mL
Protocol: A pot study is conducted to test the phytotoxicity of thaxtomin A on corn (Zea mays var. Early Sunglow) and wheat (Triticum aestivum var. PR1404). To confirm the activity on broadleaf weeds, pigweed (Amaranthus sp.) is planted in the same pot with either three corn or five wheat seeds, and sprayed simultaneously with the cereal test plants. The less than 3-inch tall plants grown under growth lights (12-h light/12-h dark) at 28° C. are sprayed with thaxtomin A solutions derived from a liquid culture of S. acidiscabies containing 0.5, and 1.0 mg thaxtomin A per mL of solvent (4% ethanol and 0.2% non-ionic surfactant). A solution of 4% ethanol +0.2% non-ionic surfactant without thaxtomin A is used as a control treatment. Each treatment is conducted in three replicates. Treated plants are kept at 28° C. under growth lights and observed at three time points—7, 14 and 21 days after treatment—for visual symptoms of phytotoxicity on corn and wheat and % control of pigweed.

[1] = tested on: sorghum (Sorghum bicolor); test: Phytotoxicity on sorghum plants (Example 3); conditions: 0.5 and 1.0 mg thaxtomin A/mL, three weeks after the treatment
Protocol: To test the phytotoxicity of thaxtomin A on sorghum plants, five seeds of sorghum (Sorghum bicolor) are planted in each 4″×4″ plastic pot filled with soil. Plants were grown under optimal conditions in a greenhouse before and after treatment with solutions containing 0.5 and 1.0 mg thaxtomin A/mL. At the time of the treatment, the plants are about 3 inches tall. Each treatment is applied in three replicates, and a control treatment included plants treated with just the carrier (4% EtOH, 0.02% polysorbate 60 POE (20) sorbitan monostearate). Evaluations for phytotoxicity are performed at 7-day intervals starting one week after treatment.

grass species = test: Greenhouse test on grass species (Example 4); conditions: 0.5 or 1.0 mg/mL thaxtomin A
Protocol: A strain of S. acidiscabies (ATCC-49003) is grown in oat bran broth for 5 days (25° C., 200 rpm). The whole cell broth with thaxtomin A is extracted using XAD resin. The dried crude extract was resuspended in 4% ethanol and 0.02% non-ionic surfactant at a concentration of 10 mg/mL, and the solutions with two different concentrations of thaxtomin A (0.5 and 1.0 mg/mL) are tested the following broadleaf weed species:
and on the following grass weed species:
All plant species are tested in 4″×4″ plastic pots in three replicates. The untreated control plants are sprayed with the carrier solution (4% Ethanol, 0.02% glycosperse) and the positive control plants with Roundup at a rate corresponding to 1 fl. oz/acre. Treated plants are kept in a greenhouse under 12 h light/12 h dark conditions.

barnyard grass = test: Greenhouse synergy test MBI-005 + commercial herbicides (Example 11); conditions: 14 days
Protocol: (§1) The test species barnyard grass, ragweed, sedge, and broad-leaf mustard were used for the valuation of synergy between MBI-005 and the rice herbicides clomazone, penoxsulam, cyhalofop, fenoxaprop-p-ethyl, bispyribac-sodium, thiobencarb, and propanil.
(§2) There were 3 replicates per treatment which were sprayed with approximately ⅔ ml per replicate. The treatments were completely randomized and kept in a greenhouse at 25° C. The efficacy was rated at 7 and 14 days post treatment.

broad-leaf mustard = test: as above; conditions: 14 days
Protocol: as §1, §2

dandelion = test: Greenhouse synergy test MBI-005 + turf herbicides (Example 11); conditions: 14 days
Protocol: (§3) The common turf weeds dandelion and plantain were used in testing for synergy between MBI-005 and 2, 4- or dicamba, two common turf herbicides.
as §2

plantain = test: as above; conditions: 14 days
Protocol: as §3, §2

[2] = tested on: Bittercress (Cardamine hirsuta); test: Pre-emergence test of MBI-005, field (Example 12); conditions: pre-emergent; also: ranges in brackets are in %
Protocol: (§4) In field testing, field soil containing weed seeds were treated with 38.2 L MBI-005/ha at a spray volume of 280 L/ha using a CO2 sprayer with flat fan nozzles. Treatments, including water as the negative control and Gallery as the positive control, were replicated four times and applied twice at a four week interval. Treatments were evaluated visually as % cover and above-ground fresh weights per container were taken.

[3] = tested on: Chickweed (Stellaria media); test: Pre-emergence test of MBI-005, field (Example 12); conditions: pre-emergent; also: ranges in brackets are in %
Protocol: as §4

[4] = tested on: Common groundsel (Senecio vulgaris); test: Pre-emergence test of MBI-005, field (Example 12); conditions: pre-emergent; also: ranges in brackets are in %
Protocol: as §4

[5] = tested on: Common yellow oxalis (Oxalis stricta); test: Pre-emergence test of MBI-005, field (Example 12); conditions: pre-emergent; also: ranges in brackets are in %
Protocol: as §4

[6] = tested on: Dandelion (Taraxacum oficinale); test: Pre-emergence test of MBI-005, field (Example 12); conditions: pre-emergent; also: ranges in brackets are in %
Protocol: as §4

Eclipta (Eclipta alba) = test: Pre-emergence test of MBI-005, field (Example 12); conditions: pre-emergent; also: ranges in brackets are in %
Protocol: as §4

[7] = tested on: Flexuous bittercress (Cardamine flexuosa); test: Pre-emergence test of MBI-005, field (Example 12); conditions: pre-emergent; also: ranges in brackets are in %
Protocol: as §4

[8] = tested on: Hairy galinsoga (Galinsoga ciliata); test: Pre-emergence test of MBI-005, field (Example 12); conditions: pre-emergent; also: ranges in brackets are in %
Protocol: as §4

[9] = tested on: Henbit (Lamimum amplexicaule); test: Pre-emergence test of MBI-005, field (Example 12); conditions: pre-emergent; also: ranges in brackets are in %
Protocol: as §4

[10] = tested on: Marsh watercress (Rorippa islandica); test: Pre-emergence test of MBI-005, field (Example 12); conditions: pre-emergent; also: ranges in brackets are in %
Protocol: as §4

[11] = tested on: New Zealand moss (Sagina procumbens); test: Pre-emergence test of MBI-005, field (Example 12); conditions: pre-emergent; also: ranges in brackets are in %
Protocol: as §4

[12] = tested on: Shepherd's purse (Capsella bursa-pastora); test: Pre-emergence test of MBI-005, field (Example 12); conditions: pre-emergent; also: ranges in brackets are in %
Protocol: as §4

[13] = tested on: Velvetleaf (Abutilon theophrasti); test: Pre-emergence test of MBI-005, field (Example 12); conditions: pre-emergent; also: ranges in brackets are in %
Protocol: as §4

crabgrass = test: Post-emergent MBI-005 + Chelated Fe on crabgrass (Example 16); conditions: 15 DAT
Protocol: Ten seedlings in 2.5 cm square pots containing plant growth mix were sprayed with two suboptimal rates of MBI-005, 14.49 mg/mL of Chelated Fe, or a combination thereof, at a volume of 40 gal/A using a cabinet track sprayer. Negative controls were sprayed with water. Pots were randomly placed in a growth room at 25° C. and 50% RH, and watered as necessary. Treatments were replicated five times and evaluated at 7 and 15 days for visual % damage, with 0% indicating no damage and 100% indicating plant death.
Synergy was calculated as the ratio of observed (E) to expected (E/Ee) percent control using Colby's formula.

## CN1C(=O)[C@](O)(Cc2cccc(O)c2)N(C)C(=O)[C@@H]1Cc1c[nH]c2cccc([N+](=O)[O-])c12 [thaxtomin A]
Pigweed (Amaranthus sp.)
  control of pigweed: complete control
[1]
  phytotoxicity: no phytotoxicity is observed
Grass species
  adverse effects on grass species: no adverse effects are observed
Barnyard grass; MBI-005 0.125 mg/mL (bispyribac-sodium line)
  % Control MBI-005: 3.3%
Barnyard grass; MBI-005 0.125 mg/mL (penoxsulam line)
  % Control MBI-005: 17.5%
Barnyard grass; MBI-005 0.125 mg/mL (propanil line)
  % Control MBI-005: 10.0%
Barnyard grass; MBI-005 0.25 mg/mL (fenoxaprop-p-ethyl line)
  % Control MBI-005: 66.7%
Barnyard grass; MBI-005 0.25 mg/mL (thiobencarb line)
  % Control MBI-005: 41.7%
broad-leaf mustard; MBI-005 0.125 mg/mL (cyhalofop line)
  % Control MBI-005: 13.3%
broad-leaf mustard; MBI-005 0.125 mg/mL (fenoxaprop-p-ethyl line)
  % Control MBI-005: 45.8%
broad-leaf mustard; MBI-005 0.125 mg/mL (thiobencarb line)
  % Control MBI-005: 54.2%
broad-leaf mustard; MBI-005 0.25 mg/mL (bispyribac-sodium line)
  % Control MBI-005: 37.5%
broad-leaf mustard; MBI-005 0.25 mg/mL (propanil line)
  % Control MBI-005: 58.3%
dandelion; MBI-005 0.1 mg/mL (2, 4-D line)
  % Control MBI-005: 20.0%
dandelion; MBI-005 0.1 mg/mL (dicamba line)
  % Control MBI-005: 20.0%
plantain; MBI-005 0.12 mg/mL (dicamba line)
  % Control MBI-005: 10.0%
plantain; MBI-005 0.24 mg/mL (2, 4-D line)
  % Control MBI-005: 25.0%
[2]
  Rating at 0.1 mg/ml (Reduction of Germination): +++ (85-94)
[3]
  Rating at 0.1 mg/ml (Reduction of Germination): ++++ (95-100)
[4]
  Rating at 0.1 mg/ml (Reduction of Germination): ++++ (95-100)
[5]
  Rating at 0.1 mg/ml (Reduction of Germination): ++++ (95-100)
[6]
  Rating at 0.1 mg/ml (Reduction of Germination): ++++ (95-100)
Eclipta (Eclipta alba)
  Rating at 0.1 mg/ml (Reduction of Germination): ++ (60-84)
[7]
  Rating at 0.1 mg/ml (Reduction of Germination): ++ (60-84)
[8]
  Rating at 0.1 mg/ml (Reduction of Germination): +++ (85-94)
[9]
  Rating at 0.1 mg/ml (Reduction of Germination): +++ (85-94)
[10]
  Rating at 0.1 mg/ml (Reduction of Germination): ++++ (95-100)
[11]
  Rating at 0.1 mg/ml (Reduction of Germination): ++++ (95-100)
[12]
  Rating at 0.1 mg/ml (Reduction of Germination): ++++ (95-100)
[13]
  Rating at 0.1 mg/ml (Reduction of Germination): ++ (60-84)
crabgrass; 12.5% MBI-005 (0.125 mg/mL)
  AVG E (visual % damage): 1.3%
crabgrass; 25% MBI-005 (0.25 mg/mL)
  AVG E (visual % damage): 1.3%
